Drawing on ChEMBL document CHEMBL4382287, “Design, Synthesis, and Biological Evaluation of 6-Benzoxazole Benzimidazole Derivatives with Antihypertension Activities” (ACS Med Chem Lett, 2019), this text covers IC50, Ki and Activity for 13 compounds.

Calls of active or inactive are those of the source. The calls are words filed in the database; no cut-off is given here.

As usually defined, the IC50 is the point on the concentration scale where inhibition reaches its midpoint. A low value points to greater potency. As usually defined, the Ki is the dissociation constant of the complex between target and ligand, obtained from inhibition or displacement. The low end stands for a stronger hold on the target, the high end for a looser hold on the target.

A short description of data set [1]: Displacement of [125I]-angiotensin-2 from AT1 receptor in Sprague-Dawley rat vascular smooth muscle cells after 150 mins by gamma counting method. A general note: In a radioligand displacement assay an active substance lowers the binding of a labelled ligand.
For data set [2], the system named is Rattus norvegicus. Kind of data set: Antihypertensive activity in rat spontaneous hypertensive model assessed as decrease in maximal mean blood pressure at 5 to 10 mg/kg, po qd measured up to 24 hrs. It is filed as functional, organism-based.
Data set [3] concerns Rattus norvegicus. Kind of data set: Antihypertensive activity in rat spontaneous hypertensive model assessed as decrease in maximal mean blood pressure at 10 mg/kg, po qd measured up to 24 hrs. The data set is classed as functional.
Data set [4] can be described thus: Toxicity in rat spontaneous hypertensive model assessed as effect on heart rate at 5 to 10 mg/kg, po qd measured up to 24 hrs. The data set is classed as organism-based. To be noted: in vivo.

In data set [1], `CCc1nc2c(C)cc(-c3nc4cccc(C)c4o3)cc2n1Cc1ccc2c(ccn2-c2ccccc2C(=O)O)c1` gave an IC50 of 13.6 nM and a Ki of 9.8 nM. The result with Rattus norvegicus [2] was Active.
In the same order, the values of `CCc1nc2c(C)cc(-c3nc4cccc(C)c4o3)cc2n1Cc1cccc2c1ccn2-c1ccccc1C(=O)O` are 12.1 nM, 8.8 nM and “Active”.
With `CCCCc1nc(Cl)c(CO)n1Cc1ccc(-c2ccccc2-c2nnn[nH]2)cc1` [LOSARTAN], the Activity in the data set on Rattus norvegicus [3] was 42.5 mmHg. In addition, in data set [1], the IC50 was 14.6 nM and the Ki was found to be 10.5 nM.
In data set [1], `CCCCc1nc2c(C)cc(-c3nc4cccc(C)c4o3)cc2n1Cc1ccc2c(ccn2-c2ccccc2C(=O)O)c1` displayed an IC50 of 9.7 nM and a Ki of 7 nM. The outcome in the data set on Rattus norvegicus [2] was Active.
As for `CCCc1nc2c(C)cc(-c3nc4c(C)cccc4o3)cc2n1Cc1ccc2c(ccn2-c2ccccc2C(=O)O)c1`, in the data set on Rattus norvegicus [3], the Activity is recorded as 41.91 mmHg. The Activity entry in data set [4] is reported as “Non-Toxic”. Also, in data set [1], the IC50 turned out to be 4.4 nM and the Ki worked out at 3.2 nM. The outcome with Rattus norvegicus [2] was Active.
On to `CCc1nc2c(C)cc(-c3nc4c(C)cccc4o3)cc2n1Cc1cccc2c1ccn2-c1ccccc1C(=O)O`, for which, in data set [1], the half-inhibitory concentration (IC50) was determined as 10.3 nM and the Ki turned out to be 7.5 nM. In the data set with Rattus norvegicus [2], the outcome was Active.
In data set [1], `CCCc1nc2c(C)cc(-c3nc4cccc(C)c4o3)cc2n1Cc1ccc2c(ccn2-c2ccccc2C(=O)O)c1` had a half-inhibitory concentration (IC50) of 5.6 nM and a Ki of 4 nM. Further, the result in the data set with Rattus norvegicus [2] was Active.
In the same order, the values of `CCCCc1nc2c(C)cc(-c3nc4cccc(C)c4o3)cc2n1Cc1cccc2c1ccn2-c1ccccc1C(=O)O` are 10.5 nM, 7.6 nM and “Active”.
As to `CCCc1nc2c(C)cc(-c3nc4cccc(C)c4o3)cc2n1Cc1cccc2c1ccn2-c1ccccc1C(=O)O`, in data set [1], the IC50 was found to be 5.3 nM and the Ki was found to be 3.8 nM. Besides, in the data set on Rattus norvegicus [2], the result was Active.
In data set [1], `CCc1nc2c(C)cc(-c3nc4c(C)cccc4o3)cc2n1Cc1ccc2c(ccn2-c2ccccc2C(=O)O)c1` showed an IC50 of 12 nM and a Ki of 8.7 nM. For the same compound, the outcome in the data set with Rattus norvegicus [2] was Active.
In data set [1], `CCCCc1nc2c(C)cc(-c3nc4c(C)cccc4o3)cc2n1Cc1ccc2c(ccn2-c2ccccc2C(=O)O)c1` yielded a half-maximal inhibitory concentration (IC50) of 10.7 nM and a Ki of 7.7 nM. Besides, the outcome in the data set with Rattus norvegicus [2] was Active.
In the case of `CCCc1nc2c(C)cc(-c3nc4c(C)cccc4o3)cc2n1Cc1cccc2c1ccn2-c1ccccc1C(=O)O`, the Activity in the data set on Rattus norvegicus [3] was 54.57 mmHg. Further, in data set [4], the Activity result is listed as “Non-Toxic”. In data set [1], this compound gave an IC50 of 4 nM and an inhibitory constant (Ki) of 2.9 nM. In addition, the result in the data set with Rattus norvegicus [2] was Active.
Turning to `CCCCc1nc2c(C)cc(-c3nc4c(C)cccc4o3)cc2n1Cc1cccc2c1ccn2-c1ccccc1C(=O)O`, in data set [1], the IC50 was 9.9 nM and the Ki worked out at 7.2 nM. In the data set with Rattus norvegicus [2], the outcome was Active.
